# Laboratory results as given in patent publication US20130136712A1, “Malodor Control Compositions Comprising Malodor Control Polymers And Acid Catalysts And Methods Thereof” (priority 2011, published 2013).
# Tests used:
# [1] = Malodor control performance of HMPs, headspace SPME GC/MS of spiked test solution; conditions: 5 ml test solution spiked with 5 microliters; 2 hours room temperature, 30 minutes 35° C.; Control = 1.0
# Experimental: This example illustrates the malodor efficacy of the HMPs of the present invention. Isovaleric acid was chosen as a chemical surrogate for body odor while butylamine was used as a representative for amine-containing odors such as fish, pet urine, etc. Hydrophobic greasy cooking odors were represented by aldehydes such as nonanal.
# The solutions are first equilibrated at room temperature for 2 hours, then incubated at 35° C. for 30 minutes. The headspace of each vial is finally sampled using a polydimethyl siloxane (PDMS) / Solid-Phase-Micro-Extraction (SPME) fiber and analyzed by GC/MS. The reductions in head space concentrations of odor molecules are measured and the data are normalized to Control.
# Lower numbers denote high levels of malodor molecules present in the solution that are attributed to high malodor control efficacy of polymers.
# [2] = tested on: Soiled sponge samples (microbe reduction); assay: Odor prevention performance, SOLARIS detection of acidic respiratory byproducts; type: cell-based; conditions: sponge treated 15 minutes, dried 12 hours; incubated 120 hrs at 37° C.
# Experimental: The Control formulation containing no malodor control polymer or zinc salt, and Formulations containing individual polymers, zinc salts, and zinc-polymer complexes are compared for their effect on odor prevention, through microbe reduction.
# Soiled sponge samples were cut into 1×6 cm strips and treated with the solutions (Table 10) for 15 minutes and dried at ambient temperature for 12 hours. The treated 1 cm strips were then cut into lx1 cm pieces, placed into SOLARIS scintillation vials, and 1 ml of MOPS buffer was added. The open vials were placed into outer SOLARIS vials containing thymolphthalein blue pH indicator and the vials were finally capped. The sealed vials were placed into a SOLARIS machine and incubated for 120 hrs at 37° C. Colorimetric measurements were conducted according to SOLARIS VIV protocol and the detection times of acidic respiratory byproducts were record (Table 10).
# [3] = Sulfur odor control performance of zinc polymer complexes, headspace GC/MS; conditions: spiked with 3 parts-per-million; 2 hours room temperature, 30 minutes 35° C.; Control = 1.0
# Experimental: Butanethiol and dipropoyl sulfide were chosen as chemical surrogates for sulfur containing odors such as kitchen (onion/garlic), sewage, etc. These two molecules also enable the assessment of efficacy of polymer for sulfur molecules having different degrees of hydrophobicity (e.g more hydrophobic dipropylsulfide is usually harder to mitigate with hydrophilic technologies such as cyclodextrin).
# 5 ml test solution was placed in a GC-MS vial and spiked with 3 parts-per-million of butanethiol or dipropylsulfide. The solutions were first equilibrated at room temperature for 2 hours, then incubated at 35° C. for 30 minutes. The headspace of each vial was finally sampled using a PDMS/SPME fiber and analyzed by GC/MS. The reductions in head space concentrations of sulfur molecules were measured and the data were normalized to Control (Table 9).
# [4] = Table 1, Accord A; cited from earlier work
# [5] = benchmark for HMPs; cited from earlier work
compound,measurement,setting,value
[Cl-].[Cl-].[Zn+2] [ZnCl2],Butylamine (Fish) head space concentration normalized to Control,[1],0.0
same,Isovaleric Acid (Body) head space concentration normalized to Control,[1],1.0
same,Nonanal (Grease) head space concentration normalized to Control,[1],1.0
same,Respiratory Byproducts Detection Time,[2],3.38 h
same,Butanethiol head space concentration normalized to Control,[3],0.8
same,Dipropylsulfide head space concentration normalized to Control,[3],1.0
"CC(C=O)Cc1ccc(C(C)C)cc1 (stereo not drawn) [Cymal, Alpha-methyl-p-isopropyl phenyl propyl aldehyde]",VP(torr) @25° C.,[4],0.007 torr
"COC1CC2CC1C1CC(C=O)CC21 (stereo not shown) [Scentenal, octahydro-5-methoxy-4,7-Methano-1H-indene-2-carboxaldehyde]",VP(torr) @25° C.,[4],0.010 torr
"CC(C)c1cccc(C(C)CC=O)c1 (stereo not shown) [Florhydral, 3-(3-Isopropyl-phenyl)-butyraldehyde]",VP(torr) @25° C.,[4],0.008 torr
"C=CCCCCCCCCC=O [Intreleven Aldehyde, undec-10-en-1-al]",VP(torr) @25° C.,[4],0.060 torr
hydroxypropyl modified beta cyclodextrin,ambient temperature water solubility (benchmark),[5],≥ 60 g/100 ml
C=CC(C)CCC=C(C)CCC=O (stereo not shown) [Floral Super],VP(torr) @25° C.,[4],0.030 torr
COc1ccccc1C=O [o-anisaldehyde],VP(torr) @25° C.,[4],0.032 torr
